Data on eleven compounds can be found in patent US10179771B2 (GALAPAGOS NV, priority 2014, dated 2019).

One test deals with T1, Recombinant human TYK2 catalytic domain (Homo sapiens, UniProt P29597).
T1 construct: Recombinant human TYK2 catalytic domain (amino acids 871-1187; catalog number 08-147); purchased Carna biosciences 08-147
T1 sequence (P29597 871-1187): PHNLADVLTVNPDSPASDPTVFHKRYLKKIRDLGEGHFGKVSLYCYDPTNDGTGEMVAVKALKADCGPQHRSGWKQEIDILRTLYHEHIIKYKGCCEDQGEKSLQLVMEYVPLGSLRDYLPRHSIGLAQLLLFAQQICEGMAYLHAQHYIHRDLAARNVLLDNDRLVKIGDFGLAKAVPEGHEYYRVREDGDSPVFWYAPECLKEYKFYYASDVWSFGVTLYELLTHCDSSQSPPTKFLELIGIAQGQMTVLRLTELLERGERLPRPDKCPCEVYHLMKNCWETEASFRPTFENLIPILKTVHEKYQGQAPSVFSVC
As to the kind of experiment: TYK2 inhibition assay. The class given is biochemical. Conditions: Comparative Compounds (Table XII). The procedure: Recombinant human TYK2 catalytic domain (amino acids 871-1187; catalog number 08-147) was purchased from Carna biosciences. 5 ng of TYK2 was incubated with 12.5 μg polyGT substrate (Sigma catalog number P0275) in kinase reaction buffer (25 mM Hepes pH 7.2, 50 mM NaCl, 0.5 mM EDTA, 1 mM DTT, 5 mM MnCl2, 10 mM MgCl2, 0.1% Brij-35, 0.1 μM non-radioactive ATP, 0.125 μCi ^33P-gamma-ATP (GE Healthcare, catalog number AH9968) final concentrations) with or without 5 μL containing test compound or vehicle (DMSO, 1% final concentration), in a total volume of 25 μL, in a polypropylene 96-well plate (Greiner, V-bottom). After 90 min at 30° C., reactions were stopped by adding 25 μL/well of 150 mM phosphoric acid. All of the terminated kinase reaction was transferred to prewashed (75 mM phosphoric acid) 96 well filter plates (Perkin Elmer catalog number 6005177) using a cell harvester (Perkin Elmer). Plates were washed 6 times with 300 μL per well of a 75 mM phosphoric acid solution and the bottom of the plates was sealed. 40 μL/well of Microscint-20 was added, the top of the plates was sealed and readout was performed using the Topcount (Perkin Elmer). Kinase activity was calculated by subtracting counts per min (cpm) obtained in the presence of a positive control inhibitor (10 μM staurosporine) from cpm obtained in the presence of vehicle. The ability of a test compound to inhibit this activity was determined as: Percentage inhibition=((cpm determined for sample with test compound present−cpm determined for sample with positive control inhibitor) divided by (cpm determined in the presence of vehicle−cpm determined for sample with positive control inhibitor))*100.
Dose dilution series were prepared for the compounds enabling the testing of dose-response effects in the TYK2 assay and the calculation of the IC50 for each compound. Each compound was routinely tested at concentration of 20 μM followed by a 1/3 serial dilution, 8 points (20 μM-6.67 μM-2.22 μM-740 nM-247 nM-82 nM-27 nM-9 nM) in a final concentration of 1% DMSO. When potency of compound series increased, more dilutions were prepared and/or the top concentration was lowered (e.g. 5 μM, 1 μM).
In general, IC50 refers to the concentration that inhibits the measured activity by half. Consider `CN(c1cc2c(cn1)ncn2C)c1ccc(C#N)cc1F` [D, reference compound], for which the concentration for half-maximal inhibition (IC50) was > 500 nM.

The test is the same for the next values; noted with them: Illustrative Compounds of the invention (Table XI).
Regarding `Cc1cc(S(C)(=O)=O)ccc1N(C)c1cc(NC(=O)[C@H]2C[C@H]2F)c2ncn(C)c2c1` [Cpd 26, (1R,2R)-N-[6-(N,2-dimethyl-4-methylsulfonyl-anilino)-1-methyl-benzimidazol-4-yl]-2-fluoro-cyclopropanecarboxamide], the IC50 lay in the range of 0.1 to 50 nM.

As to `CCS(=O)(=O)c1ccc(N(C)c2cc(NC(=O)[C@H]3C[C@H]3F)c3ncn(C)c3c2)c(C)c1` [Cpd 27, (1R,2R)-N-[6-(4-ethylsulfonyl-N,2-dimethyl-anilino)-1-methyl-benzimidazol-4-yl]-2-fluoro-cyclopropanecarboxamide], the IC50 lay in the range of 0.1 to 50 nM.

As to `Cc1cc(C#N)ncc1Oc1cc(N)c2ncn(C)c2c1` [Cpd 28, 5-(7-amino-3-methyl-benzimidazol-5-yl)oxy-4-methyl-pyridine-2-carbonitrile], the IC50 fell in the range of 100 to 500 nM.

`CCc1cc(S(C)(=O)=O)ncc1Oc1cc(NC(=O)C2CC2)c2ncn(C)c2c1` [Cpd 29, N-[6-[(4-ethyl-6-methylsulfonyl-3-pyridyl)oxy]-1-methyl-benzimidazol-4-yl]cyclopropanecarboxamide]: the IC50 fell in the range of 100 to 500 nM.

Regarding `Cc1cc(C(N)=O)ncc1Oc1cc(NC(=O)[C@H]2C[C@H]2F)c2ncn(C)c2c1` [Cpd 32, 5-[7-[[(1R,2R)-2-fluorocyclopropanecarbonyl]amino]-3-methyl-benzimidazol-5-yl]oxy-4-methyl-pyridine-2-carboxamide], the IC50 lay within 50 to 100 nM.

`CNc1cc(Oc2cnc(C#N)cc2C)cc2c1ncn2C` [Cpd 34, 4-methyl-5-[3-methyl-7-(methylamino)benzimidazol-5-yl]oxy-pyridine-2-carbonitrile]: the half-inhibitory concentration (IC50) was > 500 nM.

Regarding `Cc1cc(C#N)ncc1Oc1cc(N(C)C)c2ncn(C)c2c1` [Cpd 35, 5-[7-(dimethylamino)-3-methyl-benzimidazol-5-yl]oxy-4-methyl-pyridine-2-carbonitrile], the IC50 is > 500 nM.

Turning to `Cc1cc(C#N)ncc1Oc1cc(NC(=O)N2CC(O)C2)c2ncn(C)c2c1` [Cpd 36, N-[6-[(6-cyano-4-methyl-3-pyridyl)oxy]-1-methyl-benzimidazol-4-yl]-3-hydroxy-azetidine-1-carboxamide], the IC50 was > 500 nM.

For the compound `Cc1cc(C#N)ncc1Oc1cc(NC(=O)N2CCOCC2)c2ncn(C)c2c1` [Cpd 37, N-[6-[(6-cyano-4-methyl-3-pyridyl)oxy]-1-methyl-benzimidazol-4-yl]morpholine-4-carboxamide], the IC50 is > 500 nM.

Turning to `Cc1cc(C#N)ncc1Oc1cc(NC(=O)NC(C)C)c2ncn(C)c2c1` [Cpd 38, 1-[6-[(6-cyano-4-methyl-3-pyridyl)oxy]-1-methyl-benzimidazol-4-yl]-3-isopropyl-urea], the IC50 was in the range of 100 to 500 nM.
